Laboratory results published in the RepoRT retention time repository.

Test: HILIC, Waters ACQUITY UPLC BEH Amide, 100 × 2.1 mm, 1.7 µm; A: water + 0.125% formic acid + 10 mM ammonium formate; B: 5% water + 95% acetonitrile + 0.125% formic acid + 10 mM ammonium formate; gradient (min/%B) 0/100 2/100 7.7/70 9.5/40 10.25/30 12.75/100 17/100
Settings: stereoisomer not certain

LC retention time	SMILES
1.57 min	CC(C)CC(O)C(=O)O (centres undefined) [2-Hydroxy-4-methylpentanoic acid]
1 min	CC(=O)Oc1ccccc1C(=O)Nc1ncc([N+](=O)[O-])s1 [Nitazoxanide]
7.4 min	CN(C)CC(=O)O [N,N-Dimethylglycine]
2.71 min	CN1CCC(=C2c3ccccc3CC(=O)c3sccc32)CC1 [Ketotifen]
1.12 min	Cn1c(=O)ccn(C2OC(CO)C(O)C2O)c1=O (centres undefined) [3-Methyluridine]
1.82 min	O=C1CN2Cc3c(ccc(Cl)c3Cl)N=C2N1 [Anagrelide]
7.62 min	CC(O)CC(=O)OC(CC(=O)[O-])C[N+](C)(C)C (centres undefined) [3-Hydroxybutyrylcarnitine]
4.18 min	NC(=O)c1[nH]cnc1N [5-Aminoimidazole-4-carboxamide]
9.6 min	NC(=O)CCC(NC(=O)C(N)CCC(=O)O)C(=O)O (centres undefined) [Glu-Gln]
8.71 min	CC(=O)OCc1ccccc1 [Benzylacetate]
7.66 min	C[N+](C)(C)CCCC(=O)O [4-Trimethylammoniobutanoic acid]
1.25 min	NC(=O)CCCCC1CCSS1 (centres undefined) [Lipoamide]
10.1 min	NC1C(O)OC(COP(=O)(O)O)C(O)C1O (centres undefined) [Glucosamine-6-phosphate]
3.17 min	CC(C(O)c1ccc(O)cc1)N1CCC(Cc2ccccc2)CC1 (centres undefined) [Ifenprodil]
0.94 min	COCCOC(=O)C1=C(C)NC(C)=C(C(=O)OC(C)C)C1c1cccc([N+](=O)[O-])c1 (centres undefined) [Nimodipine]
7.4 min	CC(CN)C(=O)O (centres undefined) [3-Aminoisobutyric acid]
3.21 min	Cn1c(NCCN(CCO)CCCc2ccc([N+](=O)[O-])cc2)cc(=O)n(C)c1=O [Nifekalant]
9.66 min	CC(NC(=O)C(N)CCCN=C(N)N)C(=O)O (centres undefined) [Arg-Ala]
3.24 min	COC(=O)CC(O)(CCCC(C)(C)O)C(=O)OC1C(OC)=CC23CCCN2CCc2cc4c(cc2C13)OCO4 (centres undefined) [Homoharringtonine]
7.33 min	Nc1nc2c(ncn2C2OC(CO)C(O)C2O)c(=O)[nH]1 (centres undefined) [Guanosine]
2.93 min	COCCCCC(=NOCCN)c1ccc(C(F)(F)F)cc1 [Fluvoxamine]

LC retention time	SMILES
2.87 min	O=c1ccn(C2OC(CO)CC2O)c(=O)[nH]1 (centres undefined) [3-Deoxyuridine]
6.94 min	C=CC1=C(C(=O)O)N2C(=O)C(NC(=O)C(=NO)c3csc(N)n3)C2SC1 (centres undefined) [Cefdinir]
3.52 min	Cc1nc2n(c(=O)c1CCN1CCC(c3noc4cc(F)ccc34)CC1)CCCC2 [Risperidone]
1.08 min	Cc1ncc([N+](=O)[O-])n1CC(O)CCl (centres undefined) [Ornidazole]
2.66 min	CNCCCC12CCC(c3ccccc31)c1ccccc12 [Maprotiline]
1.75 min	COC1C(O)C(CO)OC1n1cc(C)c(=O)[nH]c1=O (centres undefined) [2'-O-Methyl-5-methyluridine]
0.98 min	CC(C)(C#N)c1cc(Cn2cncn2)cc(C(C)(C)C#N)c1 [Anastrozole]
1.11 min	CCOC(=O)N1CCC(=C2c3ccc(Cl)cc3CCc3cccnc32)CC1 [Loratadine]
1.39 min	CCCC=CC=O [2-Hexenal]
1.51 min	O=c1ccc2ccccc2[nH]1 [2-Hydroxyquinoline]
9.05 min	C=C(OP(=O)(O)O)C(=O)O [Phosphoenolpyruvic acid]
0.95 min	CCOC(=O)C1=C(C)NC(C)=C(C(=O)OC)C1c1cccc([N+](=O)[O-])c1 (centres undefined) [Nitrendipine]
9.58 min	NC(CCS)C(=O)O (centres undefined) [Homocysteine]
3.44 min	O=c1[nH]cnc2c1ncn2C1CCC(CO)O1 (centres undefined) [2',3'-Dideoxyinosine]
1.05 min	C=C1CCOC1=O [alpha-Methylene-gamma-butyrolactone]
1.18 min	O=Cc1cccc(O)c1 [3-Hydroxybenzaldehyde]
1.06 min	CCCCCCCCC=CCCCCCCCCCCCC(N)=O [Erucamide]
4.41 min	CC(Cc1ccccc1)(NC(=O)CN)c1ccccc1 (centres undefined) [Remacemide]
2.94 min	CC(C)CC(=O)NCC(=O)O [N-Isovalerylglycine]
4.48 min	OCc1ccccc1OC1OC(CO)C(O)C(O)C1O (centres undefined) [Salicin]
2.69 min	Nc1nc(Cl)nc2c1ncn2C1OC(CO)C(O)C1O (centres undefined) [2-Chloroadenosine]

LC retention time	SMILES
0.96 min	CC(C)c1ccc2c(c1)c(SC(C)(C)C)c(CC(C)(C)C(=O)O)n2Cc1ccc(Cl)cc1 [MK-886]
8.33 min	NCC(=O)O [Glycine]
2.61 min	CC(=O)NC(Cc1ccccc1)C(=O)O (centres undefined) [N-Acetylphenylalanine]
1.69 min	O=C(CCNNC(=O)c1ccncc1)NCc1ccccc1 [Nialamide]
3.63 min	CCCCCCCCCCCC(=O)OC(CC(=O)[O-])C[N+](C)(C)C [Lauroyl-L-carnitine]
2.45 min	CN(C)CCOC(C)(c1ccccc1)c1ccccn1 (centres undefined) [Doxylamine]
3.28 min	COc1nc(C)nc(Cl)c1NC1=NCCN1 [Moxonidine]
2.02 min	CN1C(=O)C(O)CC1c1cccnc1 (stereo not drawn) [trans-3'-Hydroxycotinine]
2.73 min	NC(=O)NC(N)=O [Biuret]
3.4 min	Nc1ccn(C2CSC(CO)O2)c(=O)n1 (centres undefined) [Lamivudine]
3.36 min	CC(C)CCCC(C)C1CCC2C3C(O)C=C4CC(O)CCC4(C)C3CCC12C (stereo not drawn) [5-Cholesten-3-beta-7-alpha-diol]
2.44 min	COCCCOc1ccnc(CS(=O)c2nc3ccccc3[nH]2)c1C (centres undefined) [Rabeprazole]
8.75 min	OCC1OC(OC2C(CO)OC(O)C(O)C2O)C(O)C(O)C1O (centres undefined) [Maltose]
1.56 min	OCC(O)C(O)CO (centres undefined) [Threitol]
9.53 min	NC(N)=NCCCC(N)C(=O)O (centres undefined) [Arginine]
4.99 min	Cn1cc(C2OC(CO)C(O)C2O)c(=O)[nH]c1=O (centres undefined) [1-Methylpseudouridine]
6.02 min	COc1cc(-c2oc3cc(O)cc(O)c3c(=O)c2OC2OC(COC3OC(C)C(O)C(O)C3O)C(O)C(O)C2O)ccc1O (centres undefined) [Isorhamnetin-3-O-rutinoside]
7.83 min	O=C(O)C1CCCN1 (centres undefined) [Proline]
2.34 min	COc1cc(OC)c(C(=O)CCCN2CCCC2)c(OC)c1 [Buflomedil]
6.83 min	CC(C)C(N)C(=O)OCCOCn1cnc2c(=O)[nH]c(N)nc21 (centres undefined) [Valaciclovir]
6.98 min	CCCCCCCC=O [Octanal]

LC retention time	SMILES
4.12 min	CN1C2CCCC1CC(NC(=O)c1nn(C)c3ccccc13)C2 (centres undefined) [Granisetron]
4.88 min	NC12CC3CC(CC(C3)C1)C2 [Amantadine]
1.03 min	O=C1C(CCC(O)c2ccc(F)cc2)C(c2ccc(O)cc2)N1c1ccc(F)cc1 (centres undefined) [Ezetimibe]
1.01 min	CCOc1cc(CC(=O)NC(CC(C)C)c2ccccc2N2CCCCC2)ccc1C(=O)O (centres undefined) [Repaglinide]
9.55 min	NC(=O)CCC(NC(=O)CCC(N)C(=O)O)C(=O)O (centres undefined) [gamma-Glutamylglutamine]
8.39 min	Nc1nc2c(ncn2C2OC3COP(=O)(O)OC3C2O)c(=O)[nH]1 (centres undefined) [Guanosine-3',5'-cyclic monophosphate]
9.9 min	NC(N)=NCCCC(NC(=O)C(N)CCC(=O)O)C(=O)O (centres undefined) [Glu-Arg]
1.27 min	NC(=O)c1ccccc1 [Benzamide]
8.71 min	C=Cc1ccc(O)c(OC)c1 [2-Methoxy-4-vinylphenol]
1.29 min	O=C(c1ccccc1)c1ccc2n1CCC2C(=O)O (centres undefined) [Toradol]
1.15 min	CC(C)c1nc(CN(C)C(=O)NC(C(=O)NC(Cc2ccccc2)CC(O)C(Cc2ccccc2)NC(=O)OCc2cncs2)C(C)C)cs1 (centres undefined) [Ritonavir]
1.27 min	COc1cccc(C(=O)O)c1N [2-Amino-3-methoxybenzoic acid]
6.88 min	NC(Cc1ccc(O)c([N+](=O)[O-])c1)C(=O)O (centres undefined) [3-Nitrotyrosine]
5.28 min	CC(=O)NC(CS)C(=O)O (centres undefined) [N-Acetylcysteine]
8.68 min	C[C@](N)(Cc1cnc[nH]1)C(=O)O [alpha-Methylhistidine]
4.66 min	COc1cc2nc(N3CCN(C(=O)C4CCCO4)CC3)nc(N)c2cc1OC (centres undefined) [Terazosin]
9.33 min	NC(CC(=O)O)C(=O)O (centres undefined) [Aspartic acid]
2.49 min	O=c1[nH]c(=O)c2nccnc2[nH]1 [Lumazine]
8.74 min	C=Cc1ccccc1 [Styrene]
4.24 min	CN1CCCCC1CCN1c2ccccc2Sc2ccc(S(C)=O)cc21 (centres undefined) [Mesoridazine]
2.4 min	O=c1cc[nH]c(=O)[nH]1 [Uracil]

SMILES	LC retention time
N=C1NC(=O)C(c2ccccc2)O1 (centres undefined) [Pemoline]	1.39 min
O=C(O)CNC(=O)c1cccnc1 [Nicotinoylglycine]	7.08 min
CNCC(O)c1ccc(O)cc1 (centres undefined) [Synephrine]	5.67 min
COc1ccc(C=O)cc1OC [3,4-Dimethoxybenzaldehyde]	1.08 min
COc1ccc2c3c1OC1C(=O)CCC4C(C2)N(C)CCC314 (centres undefined) [Hydrocodone]	3.8 min
CC1C(c2ccccc2)OCCN1C (centres undefined) [Phendimetrazine]	2.52 min
CC(=O)Nc1ccc2c(c1)Cc1ccccc1-2 [N-2-Fluorenylacetamide]	4.74 min
C#CCN(C)C(C)Cc1ccccc1 (centres undefined) [Selegiline]	1.5 min
CNC1CC(c2ccc(Cl)c(Cl)c2)c2ccccc21 (centres undefined) [Indatraline]	2.88 min
NC(=NCc1ccc(Cl)cc1)SCCCc1cnc[nH]1 [Clobenpropit]	6.13 min
